Structures can show the parent of a compound that is named as a salt.
Biological target: T1, human Cav3.2 channel (Homo sapiens, UniProt O95180)
T1 construct: expressed in transfected cells
Assay: Intracellular calcium concentration measurement in human Cav3.2 channel expressing stable cell line (Pharmacological Test 1)
Type: cell-based
Conditions: HEK293 cells stably expressing human Cav3.2, Fluo-4 AM fluorescence, KCl stimulation; read-out: Cav3.2 channel inhibitory action
From the text: (1) Construction of Human Cav3.2 Channel Expressing Stable Cell Line
A sequence in which a HindIII site and a kozak sequence (GCCACC) was provided on a 5′ side of a human Cav3.2 channel open reading frame (ORF) gene and a KpnI site was provided on a 3′ side thereof was incorporated into pcDNA3.1(+) (Thermo Fisher Scientific #V790-20), and the resultant was transfected into a HEK293 cell (ATCC No. CRL-1573) according to a protocol of FuGENE (registered trademark) HD Transfection Reagent (Promega #E2311).
(2) Method of Measuring Intracellular Calcium Concentration
The human Cav3.2 channel expressing stable cell line prepared by the test method (1) was seeded in a 96-well plate using a Dulbecco's modified Eagle's medium (DMEM medium) containing 10% fetal bovine serum (FBS), followed by culturing 37° C. for 48 hours under a 5% CO2 condition. Thereafter, the medium was removed, and each well washed with an A buffer was treated with 80 μL of a fluorescent dye solution containing a liquid mixture of 22 μg of a calcium fluorescent indicator Fluo-4 AM (Dojindo Molecular Technologies, Inc., #F311), 20 μL of dimethyl sulfoxide (DMSO), 1 μL of 10% Pluronic F-127 (Thermo Fisher Scientific #P6866), and 4 mL of the A buffer. After being left to stand for 45 minutes at room temperature under a light shielding condition, the cells were washed with a B buffer. In DMSO having the same final concentration as the test compound as a negative control, and the test compound dissolved in DMSO to have a final concentration of 0.1%, each test compound concentration solution containing the B buffer was added to each well. The cells were left to stand for additional 15 minutes at room temperature under a light shielding condition, and were measured using microplate reader EnVision (PerkinElmer Co., Ltd.) by the following method. First, after measuring background fluorescence in each well, an ionophore was added, and baseline fluorescence was measured. Thereafter, B buffer containing added KCl at a concentration of 83.8 mM was added to each well, and an increase in fluorescence due to calcium influx caused by the stimulation was measured for 10 seconds. Inhibition percentage was calculated from the maximum fluorescence increase value from the baseline, and an IC50 value was calculated by plotting a logarithmic value of the test compound concentration and inhibition activity. The measurement was performed by observing fluorescence of 510 nm emitted when the cells were irradiated with excitation light of 485 nm.
A buffer: 140 mM NaCl, 5 mM KCl, 1 mM MgCl2, 0.5 mM CaCl2, 10 mM Glucose, 10 mM HEPES, pH 7.3
B buffer: potassium equilibrium potential: −92 mV

T1 sequence (O95180 whole entry): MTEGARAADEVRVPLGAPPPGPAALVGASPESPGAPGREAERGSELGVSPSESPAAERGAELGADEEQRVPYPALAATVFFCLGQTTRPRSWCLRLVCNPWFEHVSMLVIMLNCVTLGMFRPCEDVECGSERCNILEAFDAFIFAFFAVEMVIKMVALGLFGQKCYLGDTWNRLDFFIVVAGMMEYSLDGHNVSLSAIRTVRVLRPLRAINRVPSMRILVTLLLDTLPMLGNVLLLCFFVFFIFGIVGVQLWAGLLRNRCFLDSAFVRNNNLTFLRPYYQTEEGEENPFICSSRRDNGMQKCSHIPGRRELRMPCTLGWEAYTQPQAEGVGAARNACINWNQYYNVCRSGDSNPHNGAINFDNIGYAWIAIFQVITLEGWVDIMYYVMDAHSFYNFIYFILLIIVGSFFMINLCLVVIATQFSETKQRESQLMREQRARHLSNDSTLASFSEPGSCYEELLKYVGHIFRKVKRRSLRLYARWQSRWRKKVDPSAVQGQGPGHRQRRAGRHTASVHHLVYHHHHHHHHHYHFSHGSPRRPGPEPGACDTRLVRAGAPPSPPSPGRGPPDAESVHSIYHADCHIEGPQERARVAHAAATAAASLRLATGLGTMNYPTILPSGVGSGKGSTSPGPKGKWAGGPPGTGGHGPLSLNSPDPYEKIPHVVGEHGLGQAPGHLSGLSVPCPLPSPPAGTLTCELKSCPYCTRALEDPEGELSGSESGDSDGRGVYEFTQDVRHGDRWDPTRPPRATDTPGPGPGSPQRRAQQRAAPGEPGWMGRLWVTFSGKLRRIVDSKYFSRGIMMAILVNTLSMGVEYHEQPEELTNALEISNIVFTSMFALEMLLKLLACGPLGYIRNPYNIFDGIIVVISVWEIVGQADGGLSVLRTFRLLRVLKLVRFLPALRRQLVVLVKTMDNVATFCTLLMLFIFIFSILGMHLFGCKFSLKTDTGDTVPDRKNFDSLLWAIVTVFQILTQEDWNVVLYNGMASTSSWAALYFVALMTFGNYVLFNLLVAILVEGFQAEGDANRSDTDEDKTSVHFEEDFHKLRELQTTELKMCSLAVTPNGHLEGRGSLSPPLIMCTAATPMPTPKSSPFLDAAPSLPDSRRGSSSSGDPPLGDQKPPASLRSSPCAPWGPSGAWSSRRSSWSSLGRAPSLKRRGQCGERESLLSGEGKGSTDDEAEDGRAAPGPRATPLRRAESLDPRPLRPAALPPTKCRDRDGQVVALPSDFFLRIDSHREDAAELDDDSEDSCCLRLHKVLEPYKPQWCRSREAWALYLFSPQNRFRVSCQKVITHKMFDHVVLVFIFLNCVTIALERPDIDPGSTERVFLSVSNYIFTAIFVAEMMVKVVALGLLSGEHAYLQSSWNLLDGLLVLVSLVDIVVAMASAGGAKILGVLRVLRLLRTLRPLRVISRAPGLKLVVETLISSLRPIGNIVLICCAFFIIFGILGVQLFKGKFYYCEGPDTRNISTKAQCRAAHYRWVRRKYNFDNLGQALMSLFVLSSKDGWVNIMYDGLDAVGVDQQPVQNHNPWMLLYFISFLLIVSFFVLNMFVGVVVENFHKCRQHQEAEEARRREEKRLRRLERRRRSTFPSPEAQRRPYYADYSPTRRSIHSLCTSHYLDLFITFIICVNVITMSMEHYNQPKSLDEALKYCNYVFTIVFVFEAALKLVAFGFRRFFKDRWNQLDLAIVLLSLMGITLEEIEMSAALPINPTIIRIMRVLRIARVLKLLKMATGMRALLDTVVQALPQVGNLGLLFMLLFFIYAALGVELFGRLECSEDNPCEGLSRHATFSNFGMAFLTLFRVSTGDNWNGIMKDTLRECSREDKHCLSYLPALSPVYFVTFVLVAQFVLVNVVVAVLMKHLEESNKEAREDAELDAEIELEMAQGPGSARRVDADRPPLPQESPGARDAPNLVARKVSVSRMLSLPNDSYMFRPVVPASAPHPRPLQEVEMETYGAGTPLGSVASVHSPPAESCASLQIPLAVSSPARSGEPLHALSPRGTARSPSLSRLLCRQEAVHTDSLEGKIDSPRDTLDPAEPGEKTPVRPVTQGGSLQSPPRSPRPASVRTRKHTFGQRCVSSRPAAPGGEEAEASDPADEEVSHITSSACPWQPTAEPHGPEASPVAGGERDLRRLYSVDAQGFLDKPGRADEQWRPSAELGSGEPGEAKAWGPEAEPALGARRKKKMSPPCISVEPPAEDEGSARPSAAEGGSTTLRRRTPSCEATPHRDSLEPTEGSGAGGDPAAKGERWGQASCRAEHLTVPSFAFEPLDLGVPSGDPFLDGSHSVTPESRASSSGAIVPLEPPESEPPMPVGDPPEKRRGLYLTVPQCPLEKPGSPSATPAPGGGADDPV

Row | SMILES | IC50 [µM]
1 | CC(NC(=O)C1CC1c1nc2ccccc2[nH]1)C(=O)NC1CN(C(=O)OC(C)(C)C)C1 (stereo not drawn) [Example 10, tert-Butyl trans-3-(2-(2-(1H-benzo[d]imidazol-2-yl)cyclopropane-1-carboxamido)propanamido)azetidine-1-carboxylate] | > 10
2 | CC(NC(=O)C1CC1c1nc2ccccc2[nH]1)C(=O)NC1CCN(C(=O)OC(C)(C)C)CC1 (stereo not drawn) [Example 11, tert-Butyl trans-4-(2-(2-(1H-benzo[d]imidazol-2-yl)cyclopropane-1-carboxamido)propanamido)piperidine-1-carboxylate] | 1 to 10
3 | CCC(=O)N1CCC(NC(=O)C(C)NC(=O)C2CC2c2nc3ccccc3[nH]2)CC1 (stereo not drawn) [Example 13, Trans-2-(1H-benzo[d]imidazol-2-yl)-N-(1-oxo-1-((1-propionylpiperidin-4-yl)amino)propan-2-yl) cyclopropane-1-carboxamide] | > 10
4 | CC(NC(=O)C1CC1c1nc2ccccc2[nH]1)C(=O)NCc1ccc(C(F)(F)F)cc1 (stereo not drawn) [Example 14, Trans-2-(1H-benzo[d]imidazol-2-yl)-N-(1-oxo-1-((4-(trifluoromethyl)benzyl)amino)propan-2-yl) cyclopropane-1-carboxamide] | 0.1 to 1
5 | CC(NC(=O)C1CC1c1nc2ccccc2[nH]1)C(=O)NCc1ccc(C(F)(F)F)nc1 (stereo not drawn) [Example 15, Trans-2-(1H-benzo[d]imidazol-2-yl)-N-(1-oxo-1-(((6-(trifluoromethyl)pyridin-3-yl)methyl)amino)propan-2-yl) cyclopropane-1-carboxamide] | 1 to 10
6 | O=C(NC1(C(=O)Nc2ccccc2C(F)(F)F)CC1)[C@H]1C[C@@H]1c1nc2ccccc2[nH]1 [Example 25, 1-((1S, 2S)-2-(1H-Benzo[d]imidazol-2-yl)cyclopropane-1-carboxamido)-N-(2-(trifluoromethyl)phenyl) cyclopropane-1-carboxamide] | 1 to 10
7 | O=C(NC1(C(=O)Nc2ccc(C(F)(F)F)cc2F)CC1)[C@H]1C[C@@H]1c1nc2ccccc2[nH]1 [Example 28, 1-((1S, 2S)-2-(1H-Benzo[d]imidazol-2-yl)cyclopropane-1-carboxamido)-N-(2-fluoro-4-(trifluoromethyl)phenyl) cyclopropane-1-carboxamide] | 0.1 to 1
8 | CC(C)N(C(=O)CNC(=O)[C@H]1C[C@@H]1c1nc2ccccc2[nH]1)c1ccc(C(F)(F)F)nc1 [Example 30, (1S, 2S)-2-(1H-Benzo[d]imidazol-2-yl)-N-(2-(isopropyl (6-(trifluoromethyl)pyridin-3-yl)amino)-2-oxoethyl) cyclopropane-1-carboxamide] | > 10
9 | O=C(NC1(C(=O)Nc2ccc(F)c(C(F)(F)F)c2)CC1)[C@H]1C[C@@H]1c1nc2ccccc2[nH]1 [Example 31, 1-((1S, 2S)-2-(1H-Benzo[d]imidazol-2-yl)cyclopropane-1-carboxamido)-N-(4-fluoro-3-(trifluoromethyl)phenyl) cyclopropane-1-carboxamide] | ≤ 0.1
10 | O=C(NC1(C(=O)Nc2ccc(F)c(C(F)(F)F)c2)CC1)[C@H]1C[C@@H]1c1nc2cc(Cl)ccc2[nH]1 [Example 34, 1-((1S, 2S)-2-(5-Chloro-1H-benzo[d]imidazol-2-yl)cyclopropane-1-carboxamido)-N-(4-fluoro-3-(trifluoromethyl)phenyl) cyclopropane-1-carboxamide] | ≤ 0.1
11 | O=C(NC1(C(=O)Nc2cccc(C(F)(F)F)c2)CCC1)[C@H]1C[C@@H]1c1nc2ccccc2[nH]1 [Example 36, 1-((1S, 2S)-2-(1H-Benzo[d]imidazol-2-yl)cyclopropane-1-carboxamido)-N-(3-(trifluoromethyl)phenyl) cyclobutane-1-carboxamide] | ≤ 0.1
12 | CC(C)C[C@@H](NC(=O)[C@H]1C[C@@H]1c1nc2ccccc2[nH]1)C(=O)Nc1cccc(C(F)(F)F)c1 [Example 37, (1S, 2S)-2-(1H-Benzo[d]imidazol-2-yl)-N—((R)-4-methyl-1-oxo-1-((3-(trifluoromethyl)phenyl)amino)pentan-2-yl) cyclopropane-1-carboxamide] | 0.1 to 1
13 | O=C(NC1(C(=O)Nc2cccc(C(F)(F)F)c2)CC1)[C@H]1C[C@@H]1c1nc2ccccc2n1C1CC1 [Example 40, 1-((1S, 2S)-2-(1-Cyclopropyl-1H-benzo[d]imidazol-2-yl)cyclopropane-1-carboxamido)-N-(3-(trifluoromethyl)phenyl) cyclopropane-1-carboxamide] | ≤ 0.1
14 | O=C(NC1(C(=O)Nc2cccc(C(F)(F)F)c2F)CC1)[C@H]1C[C@@H]1c1nc2ccccc2[nH]1 [Example 41, 1-((1S, 2S)-2-(1H-Benzo[d]imidazol-2-yl)cyclopropane-1-carboxamido)-N-(2-fluoro-3-(trifluoromethyl)phenyl) cyclopropane-1-carboxamide] | 0.1 to 1

Further lines, results first:

Row | IC50 [µM] | SMILES
15 | 1 to 10 | CC(NC(=O)C1CC1c1nc2ccccc2[nH]1)C(=O)NC1CCNCC1 (stereo not drawn) [Example 12, Trans-2-(1H-benzo[d]imidazol-2-yl)-N-(1-oxo-1-(piperidin-4-ylamino)propan-2-yl) cyclopropane-1-carboxamide hydrochloride]
16 | > 10 | CC(NC(=O)C1CC1c1nc2ccccc2[nH]1)C(=O)Nc1cnccn1 (stereo not drawn) [Example 17, Trans-2-(1H-benzo[d]imidazol-2-yl)-N-(1-oxo-1-(pyrazin-2-ylamino)propan-2-yl) cyclopropane-1-carboxamide]
17 | ≤ 0.1 | CCn1c([C@H]2C[C@@H]2C(=O)NC2(C(=O)Nc3ccc(C(F)(F)F)nc3)CC2)nc2ccccc21 [Example 27, 1-((1S, 2S)-2-(1-Ethyl-1H-benzo[d]imidazol-2-yl)cyclopropane-1-carboxamido)-N-(6-(trifluoromethyl)pyridin-3-yl) cyclopropane-1-carboxamide]
18 | 1 to 10 | O=C(NC1(C(=O)Nc2cncc(C(F)(F)F)c2)CC1)[C@H]1C[C@@H]1c1nc2ccccc2[nH]1 [Example 29, 1-((1S, 2S)-2-(1H-Benzo[d]imidazol-2-yl)cyclopropane-1-carboxamido)-N-(5-(trifluoromethyl)pyridin-3-yl) cyclopropane-1-carboxamide]
19 | 0.1 to 1 | O=C(NC1(C(=O)Nc2cc(Cl)cc(Cl)c2)CC1)[C@H]1C[C@@H]1c1nc2ccccc2[nH]1 [Example 35, 1-((1S, 2S)-2-(1H-Benzo[d]imidazol-2-yl)cyclopropane-1-carboxamido)-N-(3,5-dichlorophenyl) cyclopropane-1-carboxamide]
20 | ≤ 0.1 | O=C(CNC(=O)[C@H]1C[C@@H]1c1nc2ccccc2[nH]1)Nc1cccc(C(F)(F)F)c1 [Example 39, (1S, 2S)-2-(1H-Benzo[d]imidazol-2-yl)-N-(2-oxo-2-((3-(trifluoromethyl)phenyl)amino)ethyl) cyclopropane-1-carboxamide]
21 | 0.1 to 1 | O=C(NC1(C(=O)Nc2cc(F)cc(C(F)(F)F)c2)CC1)[C@H]1C[C@@H]1c1nc2ccccc2[nH]1 [Example 42, 1-((1S, 2S)-2-(1H-Benzo[d]imidazol-2-yl)cyclopropane-1-carboxamido)-N-(3-fluoro-5-(trifluoromethyl)phenyl) cyclopropane-1-carboxamide]
22 | ≤ 0.1 | O=C(NC1(C(=O)Nc2cccc(OC(F)(F)F)c2)CC1)[C@H]1C[C@@H]1c1nc2ccccc2[nH]1 [Example 43, 1-((1S, 2S)-2-(1H-Benzo[d]imidazol-2-yl)cyclopropane-1-carboxamido)-N-(3-(trifluoromethoxy)phenyl) cyclopropane-1-carboxamide]

Source: patent publication US11370761B2, “Voltage-dependent T-type calcium channel inhibitor” (Nippon Chemiphar Co., Ltd., priority 2017, dated 2022)
